Experimental data reported in ChEMBL document CHEMBL1201862, “PubChem BioAssay data set” (2004).
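Results reflect a 48-hour exposure of cells in 96-well plates to compound at five concentrations. GI50: concentration for 50% inhibition of growth.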 Active and inactive are the calls of the source. No stated cut-off is given here; in the data, active = GI50 up to about 1.1 µM and inactive = higher.

Assays:
Assay in all cases: growth of human tumour cells (NCI), 48 h
[1] = system: 786-0
[2] = system: A549
[3] = system: ACHN
[4] = system: BT-549
[5] = system: CAKI-1
[6] = system: CCRF-CEM
[7] = system: COLO 205
[8] = system: DU-145
[9] = system: EKVX
[10] = system: HCT-116
[11] = system: HCT-15
[12] = system: HL-60
[13] = system: HOP-62
[14] = system: HOP-92
[15] = system: HT-29
[16] = system: Hs-578T
[17] = system: IGROV-1
[18] = system: K562
[19] = system: KM12
[20] = system: LOX IMVI
[21] = system: M14
[22] = system: MCF7
[23] = system: MDA-MB-435
[24] = system: MDA-N
[25] = system: MOLT-4
[26] = system: Malme-3M
[27] = system: NCI-H226
[28] = system: NCI-H23
[29] = system: NCI-H460
[30] = system: NCI-H522
[31] = system: NCI/ADR-RES
[32] = system: OVCAR-3
[33] = system: OVCAR-4
[34] = system: OVCAR-5
[35] = system: OVCAR-8
[36] = system: PC-3
[37] = system: RPMI-8226
[38] = system: SF-268
[39] = system: SF-295
[40] = system: SK-MEL-28
[41] = system: SK-MEL-2
[42] = system: SK-MEL-5
[43] = system: SK-OV-3
[44] = system: SN12C
[45] = system: SNB-19
[46] = system: SNB-75
[47] = system: SR
[48] = system: SW-620
[49] = system: T47D
[50] = system: TK-10
[51] = system: U-251
[52] = system: UACC-257
[53] = system: UACC-62
[54] = system: UO-31
[55] = system: MDA-MB-231
[56] = system: RXF 393
[57] = system: SF-539

Compound: CCOP(=O)(OCC)C(Cc1ccccc1)N=C(c1ccccc1)c1ccccc1 (stereo not drawn)
- GI50 [1]: 15.2 µM (inactive)
- GI50 [2]: 9.29 µM (inactive)
- GI50 [3]: 14.9 µM (inactive)
- GI50 [4]: 13.2 µM (inactive)
- GI50 [5]: 16.2 µM (inactive)
- GI50 [6]: 9.95 µM (inactive)
- GI50 [7]: 14.3 µM (inactive)
- GI50 [8]: 20.9 µM (inactive)
- GI50 [9]: 18 µM (inactive)
- GI50 [10]: 14.6 µM (inactive)
- GI50 [11]: 12.1 µM
- GI50 [12]: 16.3 µM (inactive)
- GI50 [13]: 17.6 µM (inactive)
- GI50 [14]: 13.6 µM (inactive)
- GI50 [15]: 13.1 µM (inactive)
- GI50 [16]: 11.2 µM (inactive)
- GI50 [17]: 13.9 µM (inactive)
- GI50 [18]: 7.29 µM (inactive)
- GI50 [19]: 15.5 µM (inactive)
- GI50 [20]: 11.6 µM (inactive)
- GI50 [21]: 15.3 µM (inactive)
- GI50 [22]: 13.9 µM (inactive)
- GI50 [23]: 13.2 µM (inactive)
- GI50 [24]: 14.6 µM (inactive)
- GI50 [25]: 4.93 µM (inactive)
- GI50 [26]: 20.6 µM (inactive)
- GI50 [27]: 14.2 µM (inactive)
- GI50 [28]: 12.7 µM (inactive)
- GI50 [29]: 14.8 µM (inactive)
- GI50 [30]: 12.4 µM (inactive)
- GI50 [31]: 10.1 µM (inactive)
- GI50 [32]: 14.5 µM (inactive)
- GI50 [33]: 16.2 µM (inactive)
- GI50 [34]: 14.4 µM (inactive)
- GI50 [35]: 16.3 µM (inactive)
- GI50 [36]: 3.96 µM (inactive)
- GI50 [37]: 25.4 µM (inactive)
- GI50 [38]: 17.8 µM (inactive)
- GI50 [39]: 12.3 µM (inactive)
- GI50 [40]: 17 µM (inactive)
- GI50 [41]: 18.2 µM (inactive)
- GI50 [42]: 12.9 µM (inactive)
- GI50 [43]: 15.2 µM (inactive)
- GI50 [44]: 16.7 µM (inactive)
- GI50 [45]: 14.6 µM (inactive)
- GI50 [46]: 11.5 µM (inactive)
- GI50 [47]: 17.9 µM (inactive)
- GI50 [48]: 12.4 µM (inactive)
- GI50 [49]: 6.97 µM (inactive)
- GI50 [50]: 11.5 µM (inactive)
- GI50 [51]: 13.3 µM (inactive)
- GI50 [52]: 13.7 µM (inactive)
- GI50 [53]: 13.3 µM (inactive)
- GI50 [54]: 11.5 µM (inactive)

Compound: O=S(=O)(/N=C(\NO)Nc1ccc(Cl)cc1)c1cccc2nsnc12
- GI50 [1]: 21.6 µM (inactive)
- GI50 [2]: 45.5 µM (inactive)
- GI50 [3]: 34.4 µM (inactive)
- GI50 [4]: 28.6 µM (inactive)
- GI50 [5]: 12.9 µM (inactive)
- GI50 [6]: 26.1 µM (inactive)
- GI50 [7]: 32.4 µM (inactive)
- GI50 [8]: 41.3 µM (inactive)
- GI50 [9]: 26.2 µM (inactive)
- GI50 [10]: 32 µM (inactive)
- GI50 [11]: 18.3 µM
- GI50 [12]: 13.4 µM (inactive)
- GI50 [13]: > 100 µM (inactive)
- GI50 [14]: 22.1 µM (inactive)
- GI50 [15]: 39.2 µM (inactive)
- GI50 [16]: 29.2 µM (inactive)
- GI50 [17]: 28.1 µM (inactive)
- GI50 [18]: 19.7 µM (inactive)
- GI50 [19]: 31 µM (inactive)
- GI50 [20]: 20.3 µM (inactive)
- GI50 [21]: 35.4 µM (inactive)
- GI50 [55]: 77.1 µM (inactive)
- GI50 [23]: 23 µM (inactive)
- GI50 [24]: 54.1 µM (inactive)
- GI50 [25]: 12.8 µM (inactive)
- GI50 [26]: 21.2 µM (inactive)
- GI50 [27]: 81.1 µM (inactive)
- GI50 [28]: 45.2 µM (inactive)
- GI50 [29]: 38.7 µM (inactive)
- GI50 [30]: 11 µM (inactive)
- GI50 [31]: 46 µM (inactive)
- GI50 [32]: 18.7 µM (inactive)
- GI50 [33]: 13.7 µM (inactive)
- GI50 [34]: 26.9 µM (inactive)
- GI50 [35]: 34.3 µM (inactive)
- GI50 [36]: 30.3 µM (inactive)
- GI50 [56]: 19.6 µM (inactive)
- GI50 [38]: 34.4 µM (inactive)
- GI50 [39]: 57.9 µM (inactive)
- GI50 [57]: 59.3 µM (inactive)
- GI50 [40]: 18.7 µM (inactive)
- GI50 [41]: 16.4 µM (inactive)
- GI50 [42]: 14.8 µM (inactive)
- GI50 [43]: 76.2 µM (inactive)
- GI50 [44]: 21.9 µM (inactive)
- GI50 [45]: 94.4 µM (inactive)
- GI50 [46]: 31.8 µM (inactive)
- GI50 [48]: 31.8 µM (inactive)
- GI50 [49]: 48.1 µM (inactive)
- GI50 [50]: 55.7 µM (inactive)
- GI50 [51]: 31.6 µM (inactive)
- GI50 [52]: 31 µM (inactive)
- GI50 [53]: 21.6 µM (inactive)
- GI50 [54]: 65.2 µM (inactive)
